Data on 23 molecules can be found in patent US7956219B2, “Amino acid analogues” (Baker IDI Heart and Diabetes, priority 2002, dated 2011).

In one assay the test system is rat aorta. The assay is described as follows: Isolated aortic ring assay: acetyl choline-induced vascular relaxation. The conditions noted are these: rat aorta sections; compound at 10^−8M. As to the method: FIG. 3 illustrates the augmentation of vascular relaxation produced by increasing concentrations of acetyl choline in the absence of and presence of test compounds. C indicates control.
Initially four compounds were tested for their effect on vascular tone, using an isolated aortic ring assay. In this assay, sections of rat aorta are mounted in an organ bath, and tension is determined continuously using a strain gauge, as described by Furchgott & Zawadski (1980). The effect of test compounds on the vasorelaxant effect of the endothelial-dependent vasodilator acetyl choline (ACh) was examined. […] It will be appreciated that similar experiments may be performed using sections of human aorta, coronary artery or peripheral artery obtained at surgery.

The test system of another assay is HeLa cells. Description: Radiolabelled L-arginine uptake into HeLa cells. Type of assay: cell-based. As to the method: C: Control performed in the absence of test compound. […] Panel A: Compound A4; Panel B: Compound A7; Panel C: G10; Panel D: Compound H4.
In parallel with this assay, the capacity for these compounds to alter arginine entry into cells was assessed. Initial studies were conducted in HeLa cells. Arginine entry was determined by the rate of entry of radiolabelled L-arginine into the cells, using the method of Kaye et al., (2000). Of the total library, four compounds were identified which had inhibitory activity at a Ki of 100 μM. These compounds were as follows:
In the light of the foregoing discussion, we propose that this effect may be associated with therapeutic benefit.

In a further assay the test system is EA.hy.926. The assay is described as follows: Arginine uptake by endothelial cell line EA.hy.926. Type of assay: cell-based. The conditions noted are these: Homo sapiens, read-out: Arg uptake (% control) from FIG. 4; for activity at 0.1 µM: compound at 10^-7 M (bottom value); for activity at 0.01 µM: compound at 10^-8 M (top value). The text has this:
Further studies have been performed to characterize the effects of compounds from library M0006 on arginine transport in endothelial cells. Studies performed in the endothelial cell line EA.hy.926 (Harrison-Shostak et al, 1997) have identified a number of compounds which exert a stimulatory effect on L-arginine transport. This cell line is considered to be more physiologically relevant than HeLa cells to the target conditions, and in fact was more sensitive. Table 16 summarises results for the compounds so far identified which have the highest activity in the arginine transport assay.

Turning to `N=C(NCc1cc(C(F)(F)F)cc(C(F)(F)F)c1)Nc1ccc(C(N)=O)cc1OCC1CCC1` [Compound A4], the “augmentation of acetyl choline-induced vascular relaxation” value in the assay on rat aorta is given as “significant augmentation”.

On to `N=C(NCc1cc(C(F)(F)F)cc(C(F)(F)F)c1)Nc1ccc(C(N)=O)cc1OCC1CCCCC1` [Compound G10, 3-Cyclohexylmelhoxy-4-[N′-(3,5-trifluoromethyl-benzyl)-guanidino]-benzamide], for which the “effect on L-arginine transport at low concentration” value in the assay on HeLa cells (HeLa cells, low concentration (10^−7 and 10^−8 M)) was “enhance L-arginine transport at low concentration”. The “effect on L-arginine transport at high concentration” value with HeLa cells (high concentration) is “inhibit such transport at high concentration”.

With `N=C(NCc1ccc(Cl)c(Cl)c1)Nc1ccc(C(N)=O)cc1OCC1CCCCC1` [Compound H4, 3-Cyclohexylmethoxy-4-[N′-(3,4-dichloro-benzyl)-guanidino]-benzamide], the “augmentation of acetyl choline-induced vascular relaxation” value in the assay with rat aorta is recorded as “significant augmentation”.

Take `N=C(NCc1cc(C(F)(F)F)cc(C(F)(F)F)c1)Nc1ccc(C(N)=O)cc1OCC1CCC1` [M0006 01 A04]: in the assay with EA.hy.926, the activity at 0.1 µM stood at 108% and the activity at 0.01 µM was 103%.

As to `N=C(NCc1ccc(Cl)c(Cl)c1)Nc1ccc(C(N)=O)cc1OCC1CCC1` [M0006 01 A07, 3-Cyclobutylmethoxy-4-[N′-(3,4-dichloro-benzyl)-guanidino]-benzamide], in the assay with EA.hy.926, the activity at 0.1 µM stood at 66% and the activity at 0.01 µM is 87%.

On to `N=C(NCc1ccccc1F)Nc1ccc(C(N)=O)cc1OCC1CCC1` [M0006 01 A11, 3-Cyclobutylmethoxy-4-[N′-(2-fluoro-benzyl)-guanidino]-benzamide], for which, in the assay on EA.hy.926, the activity at 0.1 µM came out at 128% and the activity at 0.01 µM was determined as 159%.

Consider `Cc1ccc(CNC(=N)Nc2ccc(C(N)=O)cc2OCC2CCC2)cc1` [M0006 01 A12, 3-Cyclobutylmethoxy-4-[N′-(4-methyl-benzyl)-guanidino]-benzamide], for which, in the assay with EA.hy.926, the activity at 0.1 µM is 160% and the activity at 0.01 µM came to 179%.

`COc1ccccc1CNC(=N)Nc1ccc(C(N)=O)cc1OCC1CCC1` [M0006 01 B04, 3-Cyclobutylmethoxy-4-[N′-(2-methoxy-benzyl)-guanidino]-benzamide]: in the assay with EA.hy.926, the activity at 0.1 µM stood at 122% and the activity at 0.01 µM was found to be 130%.

On to `N=C(Nc1ccc(C(N)=O)cc1OCC1CCC1)NC1CCCCC1` [M0006 01 B12, 3-Cyclobutylmethoxy-4-(N′-cyclohexyl-guanidino)-benzamide], for which, in the assay with EA.hy.926, the activity at 0.1 µM was 134% and the activity at 0.01 µM is 161%.

Consider `CC(CNC(=N)Nc1ccc(C(N)=O)cc1OCC1CC1)c1ccccc1` (centres unmarked) [M0006 01 C12, 3-Cyclopropylmethoxy-4-[N′-(2-phenyl-propyl)-guanidino]-benzamide], for which, in the assay on EA.hy.926, the activity at 0.1 µM was 133% and the activity at 0.01 µM worked out at 116%.

In the case of `CC(CNC(=N)Nc1ccc(C(N)=O)cc1OCC1CCCCO1)c1ccccc1` (centres unmarked) [M0006 01 F05, 4-[N′-(2-Phenyl-propyl)-guanidino)-3-(tetrahydro-pyran-2-ylmethoxy)-benzamide], in the assay with EA.hy.926, the activity at 0.1 µM is 130% and the activity at 0.01 µM was 135%.

As for `N=C(NCc1ccccc1)Nc1ccc(C(N)=O)cc1OCC1CCCCO1` (centres unmarked) [M0006 01 F09, 4-(N′-Benzyl-guanidino)-3-(tetrahydro-pyran-2-ylmethoxy)-benzamide], in the assay on EA.hy.926, the activity at 0.1 µM worked out at 110% and the activity at 0.01 µM is 140%.

Regarding `N=C(NCc1ccc2c(c1)OCO2)Nc1ccc(C(N)=O)cc1OCC1CCCCO1` (centres unmarked) [M0006 01 F10, 4-(N′-Benzo[1,3]dioxol-5-ylmethyl-guanidino)-3-(tetrahydro-pyran-2-ylmethoxy)-benzamide], in the assay on EA.hy.926, the activity at 0.1 µM was 131% and the activity at 0.01 µM stood at 119%.

In the case of `CC(C)CNC(=N)Nc1ccc(C(N)=O)cc1OCC1CCCCO1` (centres unmarked) [M0006 01 F12, 4-(N′-Isobutyl-guanidino)-3-(tetrahydro-pyran-2-ylmethoxy)-benzamide], in the assay on EA.hy.926, the activity at 0.1 µM came out at 146% and the activity at 0.01 µM turned out to be 103%.

Regarding `N=C(NCc1cc(C(F)(F)F)cc(C(F)(F)F)c1)Nc1ccc(C(N)=O)cc1OCC1CCCCC1` [M0006 01 G10], in the assay on EA.hy.926, the activity at 0.1 µM stood at 188% and the activity at 0.01 µM worked out at 125%.

As to `N=C(NCc1ccc(Cl)c(Cl)c1)Nc1ccc(C(N)=O)cc1OCC1CCCCC1` [M0006 01 H04, 3-Cyclohexylmethoxy-4-[N′-(3,4-dichloro-benzyl)-guanidino]-benzamide], in the assay with EA.hy.926, the activity at 0.1 µM was 92% and the activity at 0.01 µM is 99%.

Regarding `COc1ccccc1CNC(=N)Nc1ccc(C(N)=O)cc1OCC1CCCCC1` [M0006 01 H10, 3-Cyclohexylmethoxy-4-[N′-(2-methoxy-benzyl)-guanidino]-benzamide], in the assay on EA.hy.926, the activity at 0.1 µM is 146% and the activity at 0.01 µM worked out at 153%.

In the case of `N=C(NCc1ccccc1)Nc1ccc(C(N)=O)cc1OCC1CCCCC1` [M0006 01 H11, 4-(N′-Benzyl-guanidino)-3-cyclohexylmethoxy-benzamide], in the assay on EA.hy.926, the activity at 0.1 µM is 190% and the activity at 0.01 µM came out at 131%.

As for `N=C(NCC1CCCCC1)Nc1ccc(C(N)=O)cc1OCC1CCCCC1` [M0006 02 A10, 3-Cyclohexylmethoxy-4-(N′-cyclohexylmethyl-guanidino)-benzamide], in the assay with EA.hy.926, the activity at 0.1 µM worked out at 127% and the activity at 0.01 µM was found to be 123%.

As to `N=C(NCNc1ccc([N+](=O)[O-])cn1)Nc1ccc(C(N)=O)cc1OCc1ccccc1` [M0006 02 D06, 3-Benzyloxy-4-{N′-[(5-nitro-pyridin-2-ylamino)-methyl]-guanidino}-benzamide], in the assay with EA.hy.926, the activity at 0.1 µM turned out to be 138% and the activity at 0.01 µM turned out to be 176%.

In the case of `N=C(NCc1ccccc1)Nc1ccc(C(N)=O)cc1OCc1ccccc1` [M0006 02 E06, 4-(N′-Benzyl-guanidino)-3-benzyloxy-benzamide], in the assay with EA.hy.926, the activity at 0.1 µM worked out at 160% and the activity at 0.01 µM is 167%.

For the molecule `N=C(NCc1ccco1)Nc1ccc(C(N)=O)cc1OCc1ccccc1` [M0006 02 F06, 3-Benzyloxy-4-(N′-furan-2-ylmethyl-guanidino)-benzamide], in the assay with EA.hy.926, the activity at 0.1 µM was found to be 126% and the activity at 0.01 µM is 158%.

As to `Cc1cccc(COc2cc(C(N)=O)ccc2NC(=N)NCc2ccco2)c1` [M0006 02 H08, 4-(N′-Furan-2-ylmethyl-guanidino)-3-(3-methyl-benzyloxy)-benzamide], in the assay on EA.hy.926, the activity at 0.1 µM came out at 182% and the activity at 0.01 µM worked out at 108%.
